# According to patent EP1166782A2, “Anti-retroviral pharmaceutical compositions” (Yang, Chi-Chiang, priority 2000, dated 2002):
# Where two headings read alike, the source gives them in different places.
# How the values were obtained:
# [1] = test system: various HIV isolates (NL-43, JRCSF or 89.6); test: P24 quantification, summary statements over all isolates; type: cell-based, HIV-1
# Description: (§1) PBMCs were treated with various concentrations of CAPE, MC and PEDMC provided in Example 2 and simultaneously infected with […] and macrophage and T cells dual tropic (89.6) HIV-1 isolates. The next day, the added compounds were removed by washing methods or maintained at the same concentration. Samples were divided into two groups and the upernatants of the culture medium were collected at the 3 and 7 days after infection, respectively. The use of P24 EIA Reagent Kit of Abbott Laboratory compares the concentrations of viral P24 antigen with or without the compounds tested.
# [2] = test system: Peripheral Blood Mononuclear Cells (PBMC); conditions: for The numbers of dead cells in 400 cells' count / % viability: 48 hours; for The numbers of dead cells in 400 cells' count: control 9 dead cells; for % viability: viable cells versus control (391);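 for all read-outs here: trypan blue dye exclusion, cells stained and counted from quadruplicate dishes, DMSO vehicle kept under 0.5%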
# Description: Viability of the cells was assayed by the trypan blue dye exclusion method. […] The concentration of DMSO was adjusted to be less than 0.5%. Cells from quadruplicated dishes were washed once with Hank's Balanced Salt Solution (HBSS). According to the process, the floating dead cells will be separated from the live monolayer cells. Then the cells were stained with trypan blue and counted. The total number of viable cells in the control group was considered as 100% viability and the agent-treated cells were compared with the control group for the determination of % viability. The % viability of agent-treated cells was calculated from the total number of viable cells in the control group and in the agent-treated group.
# cells = test: Cellular activities in microculture tetrazolium (MTT) tests; type: cell-based
# Description: The cellular activities were tested according to method as described in Alley M.C. et al, Cancer Res. 1988; 48(3):589-601. The principle of the method resides in that live cells can reduce MTT., i.e., 3-[4,5-dimethylthiazol-2-yl]-2,5-diphenyltetrazolium bromide)(tetrazolium salt) to formazan crystal through the dehydrogenase metabolism in Mitochondria. The crystal was dissolved in propanol and OD values were determined at 570 nm. The OD values can indicate the numbers of the live cells. The growth conditions of the cells were observed firstly. The cells were diluted to 2x10^4 cells/ml. 100µl sample taken by micropipet was placed in a 96-well plate. The plate was cultured for 24 hours as 37°C and 100µl of the compounds to be tested, which were prepared in medium, were added in each well. […] After culture for 4 hours, supernatant liquid was absorbed and 100 µl DMSO and 10µl /well was added. Each well was homogeneously mixed. The absorbance was determined at 570 nm.
# [3] = test system: macrophage and T cells dual tropic (89.6); test: P24 quantification (P24 EIA) in infected PBMCs, 89.6; type: cell-based, HIV-1; conditions: PBMC; for concentrations of the viral P24 antigen, 89.6(+): (+) original concentration of compound maintained after washing; for concentrations of the viral P24 antigen, 89.6(-): (-) compound removed after washing
# Description: as §1
# [4] = test system: macrophage-tropic (NL-43); test: P24 quantification (P24 EIA) in infected PBMCs, NL-43; type: cell-based, HIV-1; conditions: PBMC; for concentrations of the viral P24 antigen, NL43(+): (+) original concentration of compound maintained after washing; for concentrations of the viral P24 antigen, NL43(-): (-) compound removed after washing
# Description: as §1
# T cells-tropic (JRCSF) = test: P24 quantification (P24 EIA) in infected PBMCs, JRCSF; type: cell-based, HIV-1; conditions: PBMC; for concentrations of the viral P24 antigen, JRCSF(+): (+) original concentration of compound maintained after washing; for concentrations of the viral P24 antigen, JRCSF(-): (-) compound removed after washing
# Description: as §1
compound,measurement,setting,value
"O=C(/C=C/c1ccc(O)c(O)c1)OCCc1ccccc1 [CAPE, caffeic acid phenethyl ester]",viral replications (result in words),"[1]; Figures 3-5, PBMC infected with NL-43, JRCSF or 89.6",significantly inhibited viral replications
same,inhibit viral replication,"[1]; at the concentration of 100 µM or less, various HIV isolates",100%
same,The numbers of dead cells in 400 cells' count,[2]; 0.1 µM,11
same,% viability,[2]; 0.1 µM,389/391 (99.5%)
same,The numbers of dead cells in 400 cells' count,[2]; 0.5 µM,9
same,% viability,[2]; 0.5 µM,391/391 (100%)
same,The numbers of dead cells in 400 cells' count,[2]; 1 µM,7
same,% viability,[2]; 1 µM,393/391 (100.5%)
same,The numbers of dead cells in 400 cells' count,[2]; 5 µM,10
same,% viability,[2]; 5 µM,390/391 (99.7%)
same,The numbers of dead cells in 400 cells' count,[2]; 10 µM,10
same,% viability,[2]; 10 µM,390/391 (99.7%)
same,The numbers of dead cells in 400 cells' count,[2]; 25 µM,5
same,% viability,[2]; 25 µM,395/391 (101%)
same,The numbers of dead cells in 400 cells' count,[2]; 50 µM,12
same,% viability,[2]; 50 µM,388/391 (99.2%)
same,The numbers of dead cells in 400 cells' count,[2]; 100 µM,11
same,% viability,[2]; 100 µM,389/391 (99.5%)
same,The numbers of dead cells in 400 cells' count,[2]; 200 µM,7
same,% viability,[2]; 200 µM,393/391 (100.5%)
same,The numbers of dead cells in 400 cells' count,[2]; 400 µM,8
same,% viability,[2]; 400 µM,392/391 (100.3%)
same,viabilities of PBMC under high-dose versus low-dose treatments (result in words),[2]; high dose up to 400 µM compared with 0.1-10 µM,no substantial differences
same,"MTT 24h, cellular activities",cells; 0.1 µM,97.49 relative percentage
same,"MTT 48h, cellular activities",cells; 0.1 µM,87.49 relative percentage
same,"MTT 24h, cellular activities",cells; 0.5 µM,104.67 relative percentage
same,"MTT 48h, cellular activities",cells; 0.5 µM,97.54 relative percentage
same,"MTT 24h, cellular activities",cells; 1 µM,109.25 relative percentage
same,"MTT 48h, cellular activities",cells; 1 µM,104.18 relative percentage
same,"MTT 24h, cellular activities",cells; 5 µM,102.41 relative percentage
same,"MTT 48h, cellular activities",cells; 5 µM,99.74 relative percentage
same,"MTT 24h, cellular activities",cells; 10 µM,93.07 relative percentage
same,"MTT 48h, cellular activities",cells; 10 µM,94.76 relative percentage
same,"MTT 24h, cellular activities",cells; 25 µM,98.65 relative percentage
same,"MTT 48h, cellular activities",cells; 25 µM,96.92 relative percentage
same,"MTT 24h, cellular activities",cells; 50 µM,95.49 relative percentage
same,"MTT 48h, cellular activities",cells; 50 µM,96.42 relative percentage
same,"MTT 24h, cellular activities",cells; 100 µM,96.15 relative percentage
same,"MTT 48h, cellular activities",cells; 100 µM,94.02 relative percentage
same,"MTT 24h, cellular activities",cells; 200 µM,106.8 relative percentage
same,"MTT 48h, cellular activities",cells; 200 µM,98.6 relative percentage
same,"MTT 24h, cellular activities",cells; 400 µM,108.62 relative percentage
same,"MTT 48h, cellular activities",cells; 400 µM,98.9 relative percentage
same,cellular activities in MTT tests (result in words),"cells; Figures 1 and 2, 24 and 48 hours",no substantial effects
same,"concentrations of the viral P24 antigen, 89.6(+)",[3]; 0.1 µM,1000 unit
same,"concentrations of the viral P24 antigen, 89.6(-)",[3]; 0.1 µM,1000 unit
same,"concentrations of the viral P24 antigen, 89.6(+)",[3]; 0.5 µM,899.22 unit
same,"concentrations of the viral P24 antigen, 89.6(-)",[3]; 0.5 µM,949.75 unit
same,"concentrations of the viral P24 antigen, 89.6(+)",[3]; 1 µM,643.71 unit
same,"concentrations of the viral P24 antigen, 89.6(-)",[3]; 1 µM,1000 unit
same,"concentrations of the viral P24 antigen, 89.6(+)",[3]; 5 µM,243.87 unit
same,"concentrations of the viral P24 antigen, 89.6(-)",[3]; 5 µM,280.51 unit
same,"concentrations of the viral P24 antigen, 89.6(+)",[3]; 10 µM,230.32 unit
same,"concentrations of the viral P24 antigen, 89.6(-)",[3]; 10 µM,255.21 unit
same,"concentrations of the viral P24 antigen, 89.6(+)",[3]; 25 µM,0 unit
same,"concentrations of the viral P24 antigen, 89.6(-)",[3]; 25 µM,182.44 unit
same,"concentrations of the viral P24 antigen, 89.6(+)",[3]; 50 µM,0 unit
same,"concentrations of the viral P24 antigen, 89.6(-)",[3]; 50 µM,243.53 unit
same,"concentrations of the viral P24 antigen, 89.6(+)",[3]; 100 µM,0 unit
same,"concentrations of the viral P24 antigen, 89.6(-)",[3]; 100 µM,113.2 unit
same,"concentrations of the viral P24 antigen, 89.6(+)",[3]; 200 µM,0 unit
same,"concentrations of the viral P24 antigen, 89.6(-)",[3]; 200 µM,0 unit
same,"concentrations of the viral P24 antigen, 89.6(+)",[3]; 400 µM,0 unit
same,"concentrations of the viral P24 antigen, 89.6(-)",[3]; 400 µM,0 unit
same,"concentrations of the viral P24 antigen, NL43(+)",[4]; 0.1 µM,1000 unit
same,"concentrations of the viral P24 antigen, NL43(-)",[4]; 0.1 µM,1000 unit
same,"concentrations of the viral P24 antigen, NL43(+)",[4]; 0.5 µM,1000 unit
same,"concentrations of the viral P24 antigen, NL43(-)",[4]; 0.5 µM,1000 unit
same,"concentrations of the viral P24 antigen, NL43(+)",[4]; 1 µM,1000 unit
same,"concentrations of the viral P24 antigen, NL43(-)",[4]; 1 µM,1000 unit
same,"concentrations of the viral P24 antigen, NL43(+)",[4]; 5 µM,1000 unit
same,"concentrations of the viral P24 antigen, NL43(-)",[4]; 5 µM,1000 unit
same,"concentrations of the viral P24 antigen, NL43(+)",[4]; 10 µM,990.64 unit
same,"concentrations of the viral P24 antigen, NL43(-)",[4]; 10 µM,1000 unit
same,"concentrations of the viral P24 antigen, NL43(+)",[4]; 25 µM,975.64 unit
same,"concentrations of the viral P24 antigen, NL43(-)",[4]; 25 µM,988.28 unit
same,"concentrations of the viral P24 antigen, NL43(+)",[4]; 50 µM,166.12 unit
same,"concentrations of the viral P24 antigen, NL43(-)",[4]; 50 µM,865.44 unit
same,"concentrations of the viral P24 antigen, NL43(+)",[4]; 100 µM,0 unit
same,"concentrations of the viral P24 antigen, NL43(-)",[4]; 100 µM,62.26 unit
same,"concentrations of the viral P24 antigen, NL43(+)",[4]; 200 µM,0 unit
same,"concentrations of the viral P24 antigen, NL43(-)",[4]; 200 µM,0 unit
same,"concentrations of the viral P24 antigen, NL43(+)",[4]; 400 µM,0 unit
same,"concentrations of the viral P24 antigen, NL43(-)",[4]; 400 µM,0 unit
same,"concentrations of the viral P24 antigen, JRCSF(+)",T cells-tropic (JRCSF); 0.1 µM,1000 unit
same,"concentrations of the viral P24 antigen, JRCSF(-)",T cells-tropic (JRCSF); 0.1 µM,1000 unit
same,"concentrations of the viral P24 antigen, JRCSF(+)",T cells-tropic (JRCSF); 0.5 µM,1000 unit
same,"concentrations of the viral P24 antigen, JRCSF(-)",T cells-tropic (JRCSF); 0.5 µM,1000 unit
same,"concentrations of the viral P24 antigen, JRCSF(+)",T cells-tropic (JRCSF); 1 µM,1000 unit
same,"concentrations of the viral P24 antigen, JRCSF(-)",T cells-tropic (JRCSF); 1 µM,1000 unit
same,"concentrations of the viral P24 antigen, JRCSF(+)",T cells-tropic (JRCSF); 5 µM,965.62 unit
same,"concentrations of the viral P24 antigen, JRCSF(-)",T cells-tropic (JRCSF); 5 µM,1000 unit
same,"concentrations of the viral P24 antigen, JRCSF(+)",T cells-tropic (JRCSF); 10 µM,642.72 unit
same,"concentrations of the viral P24 antigen, JRCSF(-)",T cells-tropic (JRCSF); 10 µM,34.42 unit
same,"concentrations of the viral P24 antigen, JRCSF(+)",T cells-tropic (JRCSF); 25 µM,0 unit
same,"concentrations of the viral P24 antigen, JRCSF(-)",T cells-tropic (JRCSF); 25 µM,0 unit
same,"concentrations of the viral P24 antigen, JRCSF(+)",T cells-tropic (JRCSF); 50 µM,0 unit
same,"concentrations of the viral P24 antigen, JRCSF(-)",T cells-tropic (JRCSF); 50 µM,0 unit
same,"concentrations of the viral P24 antigen, JRCSF(+)",T cells-tropic (JRCSF); 100 µM,0 unit
same,"concentrations of the viral P24 antigen, JRCSF(-)",T cells-tropic (JRCSF); 100 µM,0 unit
same,"concentrations of the viral P24 antigen, JRCSF(+)",T cells-tropic (JRCSF); 200 µM,0 unit
same,"concentrations of the viral P24 antigen, JRCSF(-)",T cells-tropic (JRCSF); 200 µM,0 unit
same,"concentrations of the viral P24 antigen, JRCSF(+)",T cells-tropic (JRCSF); 400 µM,0 unit
same,"concentrations of the viral P24 antigen, JRCSF(-)",T cells-tropic (JRCSF); 400 µM,0 unit
